Test results published in article PMC4428838, “Optimization of Invasion-Specific Effects of Betulin Derivatives on Prostate Cancer Cells through Lead Development” (PLoS ONE, 2015).

Key:
Assay type in all cases: cell-based
PC-3 cells = assay: Primary 3D screen in Matrigel ECM, morphometric image analysis (AMIDA) of invasion, growth and cell death; details: PC-3 in 3D Matrigel; for anti-invasive effects in 3D culture (in words): 0.03-1 μM
Method: Three standard of care compounds widely used against PrCa were added as controls; namely, the androgen receptor antagonist enzalutamide (MDV3100), the C17α-hydroxylase/C17,20-lyase inhibitor abiraterone (Zytiga), and the classic mitotic inhibitor paclitaxel. Treatments started at day 4, when well-differentiated round acini were established.
The live 3D cell cultures were then stained with reactive dyes Calcein AM to detect living, and ethidium homodimer to detect dead cells. Images (Fig 4A) were acquired with confocal microscope and image data were analyzed with the AMIDA software. The principles of morphometric image analysis are briefly outlined in S2 Fig.
Fig 4 Primary 3D screen. PC-3 cells were cultured in 3D Matrigel ECM for 4 days and treated for 6 days with 25 betulin derivatives (from 2D high throughput screens), DMSO/vehicle control, and three reference compounds. A) Representative maximum intensity projections of confocal microscope stack images for selected compound treatments at 300 nM concentration (5× objective, scale 100 μm). B) Three graphs showing the relative impact on three morphometric parameters for 7 betulin derivatives, DMSO control, and one control compound (paclitaxel). […] C) Hierarchical clustering was done using three morphological parameters derived from PC3 organoids: spheroid size (area), complexity and the number of dead cells. D) Wound healing curves of the two betulin derivatives 4 and 20, highlighting the 50% cut-off level (orange dashed line).
Next, statistical analyses were performed to interpret the complex image data (Fig 4B and 4C). For simplicity, we focused on only three, basic morphologic parameters from the multiparametric AMIDA readout (Fig 4B): 1) Area (indicating growth of organoids), 2) structural Complexity (as a measure of the intensity of invasion), and 3) Relative Area of dead cells within organoids (red signal as a measure of cytoxicity or apoptosis). Area (Size of organoids; Fig 4B, upper panel) was measured as the number of pixels within a segmented structure. […] Shape Complexity (Fig 4B, middle panel) was obtained using the structure size (area) and perimeter (number of border pixels). The more regular the shape of an organoid, the closer it is to a perfect circle, thus minimizing the perimeter relative to object size. […] Deviations from this average (residuals) were interpreted as a measure for the shape complexity of organoids. As a logical lower limit for this measure (represented by a perfect circle), we adjusted the intercept (height level) of the regression line to render all returned residuals as positive numbers.
All 3D cultures were done in growth factor-free Matrigel Basement-membrane Matrix (Corning Inc., New York, NY, USA) using 96-well Angiogenesis μ-plates (ibidi GmbH, Munich, Germany) as described before.[38] “Sandwich” assays in short: bottom wells of cooled Angiogenesis plates were filled with 10 μL 4 mg/mL Matrigel, centrifuged for 20 min 200 g and incubated at 37°C temperature for approximately 30–60 min or until the ECM had polymerized. 1,000–1,500 cells were mixed in 2 mg/mL ECM-medium, and 20 μL of cell suspension was added in each well. The plates were centrifuged for 10 min at 100 g, or until the cells had settled on top of the lower ECM. Finally, the outer wells and side reservoirs were filled with water for humidification, and the culture plates placed into the incubator for 3–4 h or overnight. The following day, 60 μL of cell culture medium were added; refreshed every third day by carefully aspirating the medium.

Ep156T cell line = assay: Secondary 3D screen (spheroid size, complexity, cell death); details: at the highest concentration
Excerpt: (§1) Next, the 25 selected betulin derivatives depicted in Figs 1–3 including control compounds were again thoroughly tested across the same panel of prostate-derived cell lines already used in the preliminary, 2D high-throughput screen. The resulting dendrograms were either generated separately for each cell line (S4 Fig), combined into a single dendrogram (Fig 5A), or shown as reduced organoid sizes (area; Fig 5B).
(§2) Fig 5 Secondary 3D screens. Experimental betulin derivatives and control compounds were tested across a panel of prostate cancer lines (LNCaP, LAPC-4) and non-transformed, prostate epithelial cells (EP156T) in 3D culture. A) The dendrogram is based on three main morphological parameters and combines all data from primary and secondary 3D screens. […] B) Boxplots showing the impact of selected compounds on spheroid size (Area). Data scaling: as described in Fig 4 C) Effects of all betulin derivatives and control compounds on cell death (number of dead cells).
(§3) All 3D cultures were done in growth factor-free Matrigel Basement-membrane Matrix (Corning Inc., New York, NY, USA) using 96-well Angiogenesis μ-plates (ibidi GmbH, Munich, Germany) as described before.[38] “Sandwich” assays in short: bottom wells of cooled Angiogenesis plates were filled with 10 μL 4 mg/mL Matrigel, centrifuged for 20 min 200 g and incubated at 37°C temperature for approximately 30–60 min or until the ECM had polymerized. 1,000–1,500 cells were mixed in 2 mg/mL ECM-medium, and 20 μL of cell suspension was added in each well. The plates were centrifuged for 10 min at 100 g, or until the cells had settled on top of the lower ECM. Finally, the outer wells and side reservoirs were filled with water for humidification, and the culture plates placed into the incubator for 3–4 h or overnight. The following day, 60 μL of cell culture medium were added; refreshed every third day by carefully aspirating the medium. This “sandwich” setting allows almost unifocal alignment of cells and 3D structures in a single optical plane, thus reducing the time required for confocal stack imaging.
(§4) All control compounds were purchased from Selleck (Munich, Germany), except for staurosporine (Sigma-Aldrich, St. Louis, MO, USA) and Y-27632 (Tocris, Bristol, UK) and dissolved in dimethyl sulfoxide (DMSO) as a vehicle at 10 mM. In the primary and secondary 3D screens, experimental and control compound exposures were performed in triplicates. Four concentrations for each compound were applied (0.03, 0.1, 0.3 and 1 μM). Compound treatments were initiated four days after cell embedding, and continued for six days after which spheroids were stained and imaged.
(§5) Supplementary file pone.0126111.s004.eps: S4 Fig Secondary screens. Dendrograms for A) LNCaP, B) LAPC-4, and C) Ep156T betulin screens in 3D culture have been constructed using three main read-outs: spheroid size, spheroid complexity, and cell death. […] (EPS) Click here for additional data file.

LAPC-4 = assay: as above; details: yellow and red clusters
Excerpt: as §1, §2, §3, §4, §5

[1] = test system: PC-3, LNCaP, LAPC-4, Ep156T; assay: Primary and secondary 3D screens combined across the cell line panel; details: cell lines other than PC-3, 3D, 300 nM or lower (except compound 15)
Method: Fig 5 Secondary 3D screens. Experimental betulin derivatives and control compounds were tested across a panel of prostate cancer lines (LNCaP, LAPC-4) and non-transformed, prostate epithelial cells (EP156T) in 3D culture. A) The dendrogram is based on three main morphological parameters and combines all data from primary and secondary 3D screens. Effective compound treatments are indicated in red and yellow, yellow being the most invasion-specific. B) Boxplots showing the impact of selected compounds on spheroid size (Area). Data scaling: as described in Fig 4 C) Effects of all betulin derivatives and control compounds on cell death (number of dead cells).
In order to assist functional categorization of our betulin derivatives, we combined all data into a single dendrogram, shown in Fig 5A. In addition, multiparametric representation of all experimental data as a single heatmap is highly informative (S5 Fig) and a potent way to illustrate the effects of compounds on growth, structural complexity and cell death across multiple cell lines. […] However, at lower concentrations, these compounds may act as potent and specific inhibitors of cell invasion and motility.
Supplementary file pone.0126111.s005.eps: S5 Fig Primary and secondary screens. […] The main read-outs (Area = Size, Complexity = Invasiveness, Red = Cell death) are shown in their own columns. Data scaling: DMSO control has been given a value 0 whereas paclitaxel control is valued -100 or 100 depending on the read-out. Color key is located in the upper right corner. (EPS) Click here for additional data file.
Supplementary file pone.0126111.s006.tif: S6 Fig Confocal images from primary and secondary betulin screens. Viable cells have been stained with calcein AM (green) and dead cells with ethidium homodimer-2 (red) (5× objective, maximum intensity projections, scale bar = 100 μm). (TIF) Click here for additional data file.

[2] = test system: actin cytoskeleton of PC-3, LNCaP and Ep156T spheroids; assay: F-actin cytoskeleton (phalloidin staining) in 3D spheroids; details: after 48 hours of exposure; seen in Ep156T acini and PC-3 spheroids, not LNCaP
Excerpt: […] […] For phenotypic comparisons, we tested a panel of reference compounds targeting Akt, Rac, ROCK, Src, and other pathways, broadly linked to the actin cytoskeleton.
Fig 8 3D morphologies of prostate spheroids, exposed to selected betulin derivatives and captured with a confocal microscope. Actin cytoskeleton (filamentous or F-actin) is stained green (phalloidin), nuclei with a red dye (confocal microscope images, 40× objective, scale bar shown for each panel on the right lower corner).

LNCaP organoids = assay: Secondary 3D screen (spheroid size, complexity, cell death); details: dendrogram clusters
Excerpt: as §1, §2, §3, §4, §5

| SMILES | anti-invasive effects in 3D culture (in words) (PC-3 cells; 6 days treatment) | efficacy in 3D LAPC-4 culture (dendrogram clusters) (LAPC-4) | effects on the other cell lines at anti-invasive concentrations [1] | organization of actin cytoskeleton in 3D spheroids [2] | further results |
| --- | --- | --- | --- | --- | --- |
| C=C(C)[C@@H]1CC[C@]2(C(=O)O)CC[C@]3(C)C(CCC4[C@@]5(C)CCC(=O)C(C)(C)C5CC[C@]43C)C12 (stereo partly drawn) [Compound 2, betulonic acid] | did not show significant anti-invasive effects |  |  |  | response of Ep156T in 3D culture (Ep156T cell line): responded to betulonic acid |
| CC(C)[C@@H]1CC[C@]2(C(=O)O)CC[C@]3(C)C(CCC4[C@@]5(C)CCC(=O)C(C)(C)C5CC[C@]43C)C12 (stereo partly drawn) [Compound 3] | one of the most potent anti-invasive, growth inhibitory agents | most active | no noticeable effects on the other cell lines |  | concentration at which anti-invasive effects are seen in 3D (PC-3 cells; 6 days treatment): ≤ 300 nM |
| C=C(C)[C@@H]1CC[C@]2(C(=O)O)CC[C@]3(C)C(CCC4[C@@]5(C)Cc6nccnc6C(C)(C)C5CC[C@]43C)C12 (stereo partly drawn) [Compound 15] | most potent anti-invasive effects |  | no noticeable effects on the other cell lines | effectively disrupted the organization of actin cytoskeleton | concentration with strong anti-invasive effects in 3D (PC-3 cells; 6 days treatment): 1.0 µM; growth inhibition in 3D (PC-3 cells; at 1.0 μM): without any growth inhibition |
| CNC(=O)c1ccc(N2C(=S)N(c3ccc(C#N)c(C(F)(F)F)c3)C(=O)C2(C)C)cc1F [enzalutamide, reference compound] |  | efficacy of all positive controls |  |  | effect on morphometric measures (area, complexity, dead cells) (PC-3 cells; paclitaxel at 30 and 100 nM): no noticeable effect; among the effective treatments in 3D LNCaP organoids (LNCaP organoids): among the effective treatments |
| CN[C@@H]1C[C@H]2O[C@@](C)([C@@H]1OC)n1c3ccccc3c3c4c(c5c6ccccc6n2c5c31)C(=O)NC4 [staurosporine, reference compound] |  |  |  | affected the cytoskeleton in a comparable fashion |  |
